Experimental data reported in ChEMBL document CHEMBL4261511, “Synthesis, structure-activity relationship and binding mode analysis of 4-thiazolidinone derivatives as novel inhibitors of human dihydroorotate dehydrogenase” (Medchemcomm, 2017).

Key:
[1] = target: T1, Dihydroorotate dehydrogenase (quinone), mitochondrial (Homo sapiens, UniProt Q02127); test: Inhibition of human DHODH at 10 uM using dihydroorotate substrate by DCIP assay relative to control
[2] = target: T1, Dihydroorotate dehydrogenase (quinone), mitochondrial; test: Inhibition of human DHODH using dihydroorotate substrate by DCIP assay

T1 sequence (Q02127 whole entry): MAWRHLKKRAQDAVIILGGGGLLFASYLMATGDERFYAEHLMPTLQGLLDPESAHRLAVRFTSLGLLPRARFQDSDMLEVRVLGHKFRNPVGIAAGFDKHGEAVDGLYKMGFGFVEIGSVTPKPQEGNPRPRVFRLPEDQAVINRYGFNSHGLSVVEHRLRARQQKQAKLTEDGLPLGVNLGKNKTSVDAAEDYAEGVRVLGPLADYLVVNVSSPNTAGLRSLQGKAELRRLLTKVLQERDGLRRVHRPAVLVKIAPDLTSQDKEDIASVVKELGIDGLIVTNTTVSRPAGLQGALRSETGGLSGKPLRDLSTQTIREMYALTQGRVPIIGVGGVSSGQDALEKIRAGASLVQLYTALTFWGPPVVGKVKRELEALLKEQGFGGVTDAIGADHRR

Row | Structure (SMILES) | inhibition [1] [%] | IC50 [2] [µM]
1 | O=C1CSC(=S)N1c1ccc(C(F)(F)F)cc1 | 25.6 | > 10
2 | COC(=O)/C(C#N)=C1\SCCN1c1ccccc1F | 11.1 | > 10
3 | COC(=O)/C(C#N)=C1\SCC(=O)N1c1ccc(C(=O)O)cc1 | 15.1 | > 10
4 | COC(=O)/C(C#N)=C1\SCC(=O)N1c1cccc2ccccc12 | 21.9 | > 10
5 | COC(=O)/C(C#N)=C1\SCC(=O)N1c1ccccc1I | 18.4 | > 10
6 | COC(=O)/C(C#N)=C1\SCC(=O)N1c1cccc(Cl)n1 | 43.7 | > 10
7 | N#C/C(C(N)=O)=C1/SCC(=O)N1c1ccccc1F | 11.8 | > 10
8 | COC(=O)/C(C#N)=C1\SCC(=O)N1c1ccc2ccccc2c1 | 80.3 | 
9 | COC(=O)/C(C#N)=C1\SCC(=O)N1c1ccnc(Cl)c1 | 45.4 | > 10
10 | COC(=O)C(C(=O)OC)=C1SCC(=O)N1c1ccccc1F | 4.27 | > 10
11 | CC(C)(C)OC(=O)/C(C#N)=C1\SCC(=O)N1c1ccccc1F | 33.9 | > 10
12 | COC(=O)/C(C#N)=C1\SCC(=O)N1c1ccccc1F | 34.9 | > 10
13 | COC(=O)/C(C#N)=C1\SCC(=O)N1c1ccc(C(C)(C)C)cc1 | 79.1 | 
14 | CCCCOC(=O)/C(C#N)=C1\SCC(=O)N1c1ccccc1F | 28.8 | > 10
15 | CCCOC(=O)/C(C#N)=C1\SCC(=O)N1c1ccccc1F | 33.5 | > 10
16 | COC(=O)/C(C#N)=C1\SCC(=O)N1c1cccc(F)c1 | 34.1 | > 10
17 | CCOC(=O)C(C(=O)OCC)=C1SCC(=O)N1c1ccccc1F | 8.71 | > 10
18 | CCOC(=O)/C(C#N)=C1\SCC(=O)N1c1ccccc1F | 38.2 | > 10
19 | COC(=O)/C(C#N)=C1\SCC(=O)N1c1ccc(OC)cc1F | 40.4 | > 10

Continued, values first:

Row | inhibition [1] [%] | IC50 [2] [µM] | Structure (SMILES)
20 | 15.7 | > 10 | COC(=O)/C(C#N)=C1\SCCC(=O)N1c1ccccc1F
21 | 14.9 | > 10 | N#C/C(C(=O)O)=C1/SCC(=O)N1c1ccccc1F
22 | 40 | > 10 | COC(=O)/C(C#N)=C1\SCC(=O)N1c1ccccc1Cl
23 | 74.4 | 3.03 | COC(=O)/C(C#N)=C1\SCC(=O)N1c1ccc(C(F)(F)F)cc1
24 | 56.9 | 8.51 | COC(=O)/C(C#N)=C1\SCC(=O)N1c1cccc(Cl)c1
25 | 69 | 2.68 | COC(=O)/C(C#N)=C1\SCC(=O)N1c1ccc(Br)cc1
26 | 62.9 | 4.41 | COC(=O)/C(C#N)=C1\SCC(=O)N1c1ccc([N+](=O)[O-])cc1
27 | 49.4 | 10.6 | COC(=O)/C(C#N)=C1\SCC(=O)N1c1ccc(F)cc1
28 | 52.5 | 9.45 | COC(=O)/C(C#N)=C1\SCC(=O)N1c1ccc(OC)cc1
